From patent US9579329B2, “Use of estetrol as emergency contraceptive” (Estetra S.P.R.L., priority 2011, dated 2017)
Read-outs that look alike come from different tables or passages of the source.

What was measured:
[1] = system: ovulation in four-day cyclic rats; experiment: Anti-ovulatory effect in four-day cyclic rats, oral twice daily for four days, ova per oviduct counted; type: in vivo, rat; details: for ED50: Rattus norvegicus, po, 96 h, four-day cyclic rats; for rats with ovulation inhibited: Days 1-4, 8 rats per group
Procedure: Vaginal smears from female rats were obtained daily for two weeks prior to the start of treatment to identify four-day cycling rats. All treatments were administered orally twice daily at approximately 6:30 am and 4:30 pm for four consecutive days (Days 1-4), starting on the day of estrus. One day after the final dose (Day 5), the rats were euthanized by CO2 asphyxiation at approximately 1 pm, and the number of ova per oviduct was counted by visualization under a dissecting microscope and recorded. In one study, animals (8 per group) were treated with E4 (0.03; 0.1; 0.3; 1.0 or 3.0 mg/kg) or ethinylestradiol (EE) (0.0003; 0.001; 0.003, 0.01 or 0.03 mg/kg). The control group was given the vehicle only. In another study, the antiovulatory activity of E4 was evaluated relative to that of estradiol (E2). Animals (8 per group) were treated with E4, E2 or vehicle (control group).

[2] = system: ovulation and pregnancy in fertile female rabbits; experiment: Prevention of pregnancy in rabbits, twice daily dosing for 14 days starting four days before mating; type: in vivo, rabbit
Procedure: Eighteen proven fertile female rabbits, 3 per group were dosed twice daily at approximately 12 hour intervals for 14 days starting four days before mating: Group 1: vehicle control (ASV: 0.9% sodium chloride, 0.4% polysorbate 80, 0.5% carboxymethylcellulose and 0.9% benzyl alcohol in distilled or deionised water, 1 ml/kg), Group 2: 0.01 mg/kg E4 in ASV, 1 ml/kg, Group 3: 0.03 mg/kg E4 in ASV, 1 ml/kg, Group 4: 0.1 mg/kg E4 in ASV, 1 ml/kg, Group 5: 0.3 mg/kg E4 in ASV, 1 ml/kg and Group 6: 1.0 mg/kg E4 in ASV, 1 ml/kg. Doses were determined by body weights taken the first day of dosing and were adjusted according to weights obtained one week later. Each female rabbit was bred with two proven fertile male rabbits after four days of dosing. The females were necropsied ten days later and the number of pregnancies were determined.

[3] = system: mated female Wistar rats; experiment: Effects of E4 on the pregnancy of the Wistar rat, oral gavage Day 6 to 17 of gestation; type: in vivo; details: for females observed to be hunched towards the end of gestation: seven rats per group
Procedure: In one study, groups of seven mated female rats were given E4 orally, by gavage, at dose levels of 30, 60 or 90 mg/kg/day from Day 6 to 17 of gestation inclusive. A similar group of seven rats was given the vehicle, 0.5% w/v carboxymethylcellulose, over the same period to act as controls. On Day 20 of gestation, the females were examined.
In another study, using the same protocol as the study above, groups of seven mated female rats were given E4 at dose levels of 0.1, 0.3, 1, 3 and 10 mg/kg/day or vehicle (controls).

[4] = system: adult female cynomolgus monkeys; experiment: Maximum tolerated dose (MTD) study in adult female cynomolgus monkeys; type: in vivo
Procedure: A maximum tolerated dose (MTD) study was performed in adult female cynomolgus monkeys.
Three control animals were treated orally with vehicle, and four other animals were treated orally with E4 as a suspension in vehicle at single increasing doses of 1, 10, 100 or 1000 mg/kg on days 1, 3, 6 and 14 respectively.

[5] = system: healthy postmenopausal women; experiment: Safety and tolerability of a single rising oral dose in healthy postmenopausal women; type: in vivo, human; details: for safety and tolerability after single administration: dose up to 100 mg, humans
Procedure: (§1) In the present example the safety, tolerability, pharmacokinetics and pharmacodynamics of a single escalating dose of E4 (0.1, 1, 10 and 100 mg) was evaluated in healthy postmenopausal women.
(§2) A double-blind, randomized, placebo-controlled, single rising dose study (0.1, 1, 10 and 100 mg of E4) was performed in healthy postmenopausal women. 32 healthy postmenopausal female volunteers between 53 and 69 years of age were enrolled. Menopause was defined as ≧12 months amenorrhea or 6 months amenorrhea with serum FSH levels≧40 IU/l and serum E2<73 pmol/l. […] A total of 8 subjects were assigned to each dose group; six subjects received active treatment and two subjects received placebo.

[6] = Pharmacokinetics of a single oral dose in healthy postmenopausal women; type: in vivo, human; details: for half-life: female, human, plasma, po, postmenopausal women
Procedure: as §1, §2
Plasma concentration profiles could not be determined in subjects of the 0.1 mg group.

[7] = system: plasma LH levels; experiment: Pharmacodynamics: plasma LH levels after a single oral dose in postmenopausal women; type: in vivo, human
Procedure: as §1, §2
The maximum mean suppression was 48% at 4 hours after dosing. A second LH trough of 45% is seen at 12 hours after dosing, synchronous with the mean E4 levels.

[8] = system: FSH levels; experiment: Pharmacodynamics: FSH levels after a single oral dose in postmenopausal women; type: in vivo, human; details: 100 mg dose group
Procedure: as §1, §2

[9] = system: estrogen-sensitive parameters related to hepatic and bone metabolism; experiment: Pharmacodynamics: estrogen-sensitive hepatic and bone metabolism parameters and endometrial stimulation in postmenopausal women; type: in vivo, human; details: single oral dose
Procedure: as §1, §2
Some fast reacting, estrogen-sensitive parameters related to hepatic and bone metabolism were determined in the 100-mg dose group only. […] Interpretation of the pharmacodynamic data must be made with care taking into consideration the small number of subjects and the single dose administration.

[10] = another study, E4 vs E2, p.o., read-out: antiovulatory ED50
[11] = 0.01 mg/kg twice daily, one female failed to breed
[12] = 0.03 mg/kg twice daily, 3 animals per group
[13] = 1.0 mg/kg twice daily, 3 animals per group
[14] = 30, 60 or 90 mg/kg/day oral gavage, Day 6 to 17 of gestation
[15] = all dose groups 30, 60, 90 mg/kg/day
[16] = single increasing oral doses 1-1000 mg/kg

## C[C@]12CC[C@@H]3c4ccc(O)cc4CC[C@H]3[C@@H]1CC[C@@H]2O [E2, estradiol, reference compound]
[1]; [10]
  ED50: 0.03 to 0.1 mg/kg

## C[C@]12CC[C@@H]3c4ccc(O)cc4CC[C@H]3[C@@H]1[C@@H](O)[C@@H](O)[C@@H]2O [E4, 1,3,5(10)-estratrien-3, 15α, 16α, 17β-tetrol]
[1]; 0.03 mg/kg p.o. twice daily
  rats with ovulation inhibited: did not inhibit ovulation
[1]; 0.1 mg/kg p.o. twice daily
  rats with ovulation inhibited: 2 of 8
[1]; 0.3 mg/kg p.o. twice daily
  rats with ovulation inhibited: 5 of 8
[1]; 1.0 mg/kg p.o. twice daily
  rats with ovulation inhibited: 7 of 8
[1]; 3.0 mg/kg p.o. twice daily
  rats with ovulation inhibited: 8 of 8
[1]; [10]
  ED50: 0.204 mg/kg
[2]
  dosages that caused complete prevention of pregnancy: > 0.03 mg/kg b.i.d.
[2]; [11]
  N corpora lutea, total number: 22
  N pregnancies, total number: 22
[2]; [12]
  N corpora lutea, total number: 22
  N pregnancies, total number: 21
[2]; 0.1 mg/kg twice daily, 3 animals per group
  N corpora lutea, total number: 20
[2]; 0.3 mg/kg twice daily, 3 animals per group
  N corpora lutea, total number: 20
[2]; [13]
  N corpora lutea, total number: 3
  N pregnancies, total number: 0
[2]; oral
  oral doses that induce inhibition of ovulation: > 0.3 mg/kg b.i.d.
[3]; 3 mg/kg/day
  females observed to be hunched towards the end of gestation: one female
[3]; 10 mg/kg/day
  mean body weight during treatment period: overall loss in mean body weight
  mean food intake: reduced mean food intake
  females observed to be hunched towards the end of gestation: Three females
[3]; 0.1, 0.3, 1 and 3 mg/kg/day
  mean body weight gains over treatment period: less than the controls
[3]; 0.3, 1 and 3 mg/kg/day
  mean gravid uterus weight: reduction in mean gravid uterus weight
[3]; 1 and 3 mg/kg/day
  mean food intake over treatment period: slightly lower than the control
[3]; [14]
  clinical observations or necropsy findings related to treatment: no relevant unexpected clinical observations or necropsy findings
  deaths: no deaths
[3]; [15]
  group mean body weight over treatment period: Group mean body weight loss
  mean food intake over treatment period: marked reduction in mean food intake
[3]; another study, 0.1, 0.3, 1, 3 and 10 mg/kg/day
  deaths: no deaths
[3]; dose level below 3 mg/kg/day
  maternal toxicity: only slight maternal toxicity
[4]; 1 mg/kg, the day after dosing
  animals with decreased levels of inorganic phosphorus: 3 of 4
[4]; 1000 mg/kg oral, approximately 12 h after dosing
  adverse clinical sign: emesis in one E4-treated animal
[4]; after the 100 mg/kg dose
  animals with decreased levels of inorganic phosphorus: all E4-treated animals
[4]; after the 1000 mg/kg dose
  animals with decreased levels of inorganic phosphorus: all E4-treated animals
[4]; doses up to 1000 mg/kg
  tolerability of single oral treatment: well tolerated
[4]; [16]
  effects on body weight or haematological parameters: No effects
  gross necropsy: did not reveal any unusual findings
  liver parameters (AST, ALT): no apparent test item- or dose-related findings
[5]; 0.1 mg single oral dose, N = 6
  Somnolence, E = number of adverse events: 1
  Somnolence, n = number of subjects with adverse events: 1
  Somnolence, percentage of subjects with adverse events: 16.7%
[5]; 1 mg single oral dose, N = 6
  Somnolence, E = number of adverse events: 1
  Somnolence, n = number of subjects with adverse events: 1
  Somnolence, percentage of subjects with adverse events: 16.7%
[5]; 10 mg group
  number of AEs: just one AE
[5]; 10 mg single oral dose, N = 6
  Myalgia, E = number of adverse events: 1
  Myalgia, n = number of subjects with adverse events: 1
  Myalgia, percentage of subjects with adverse events: 16.7%
[5]; 0.1, 1.0 and 10 mg
  number and nature of AEs versus placebo: similar
[5]; 100 mg
  number of AEs (all AEs and related AEs): highest
[5]; 100 mg single oral dose, N = 6
  Diarrhoea NOS, E = number of adverse events: 2
  Diarrhoea NOS, n = number of subjects with adverse events: 2
  Diarrhoea NOS, percentage of subjects with adverse events: 33.3%
  Myalgia, E = number of adverse events: 2
  Myalgia, n = number of subjects with adverse events: 2
  Myalgia, percentage of subjects with adverse events: 33.3%
  Somnolence, E = number of adverse events: 2
  Somnolence, n = number of subjects with adverse events: 2
  Somnolence, percentage of subjects with adverse events: 33.3%
[5]
  safety and tolerability after single administration: In conclusion, the results of this study showed that E4 after single administration at a dose up to 100 mg is safe and well tolerated.
[5]; listed as estetrol
  safety and tolerability after single administration: safe and well tolerated
[5]; one subject of the 100 mg group, not serious, mild, probably related
  notable adverse event: allergic reaction (urticaria)
[5]; single doses 0.1, 1, 10 and 100 mg
  severe or serious adverse events: No severe or serious adverse events
[5]; single doses 0.1-100 mg
  changes in ECGs, laboratory tests or vital signs: no notable changes
[6]; dose range tested
  oral bioabsorption: high and dose-proportional
[6]; single oral dose, read-out: terminal half life (converted)
  half-life: 28 h
[6]; single oral dose, read-out: terminal half life, ranges
  half-life: 18 to 60 h
[6]; range from 1 to 100 mg oral
  Cmax dose proportionality: proportional
[6]; range from 10 to 100 mg oral
  AUC0-∞ dose proportionality: proportional to the oral dose
[6]; single oral dose
  absorption: extremely fast
  terminal half life and fractional clearance, effect of dose level: not affected by dose level
[6]; single oral dose, 1-100 mg
  inter-subject variability of pharmacokinetic data: very low
[7]; 4 hours after dosing, 100 mg group shown in FIG. 2
  maximum mean suppression of LH: 48%
[7]; 12 hours after dosing, 100 mg group shown in FIG. 2
  second LH trough: 45%
[7]; up to 48 hours after dosing
  inhibition of plasma LH levels: clear dose-dependent inhibition
[8]; 48 hrs after dosing
  maximum suppression of FSH: 41%
[8]; up to 168 hours (1 week) after dosing
  inhibition of FSH levels: profound and sustained inhibition
[9]
  endometrial stimulation (withdrawal bleeding after progestogen post treatment): No significant endometrial stimulation

## C#C[C@]1(O)CC[C@H]2[C@@H]3CCc4cc(O)ccc4[C@H]3CC[C@@]21C [EE, ethinylestradiol, reference compound]
[1]; study E4 vs EE, p.o. twice daily, read-out: calculated antiovulatory ED50
  ED50: 0.01 mg/kg
